In patent publication US20230096766A1, “AMINO ACID HAVING FUNCTIONAL GROUP CAPABLE OF INTERMOLECULAR HYDROGEN BONDING, PEPTIDE COMPOUND CONTAINING SAME AND METHOD FOR PRODUCTION THEREOF” (Chugai Seiyaku Kabushiki Kaisha, priority 2018, published 2023):
*1 amine or outer side, *2 acyl side, *3 side chain or, on linkers, in order; H or OH if unused. Where a SMILES comes first, the peptide text is derived from it. Bridges are numbered along the chain shown (N, C = ends). [ ]: non-standard residue; d: D form. The star is where a group is joined. ξ: configuration not given here. X18 = NN([C@@H](Cc1cccc(Cl)c1)C(=O)[*:2])[*:1]; NMePhe(3-Cl) = CN[C@@H](Cc1cccc(Cl)c1)C(=O)O; Propyl(2,2-Me2,3-OH) = CC(C)(CO)C*; NMeF = CN[C@@H](Cc1ccccc1)C(=O)O; NMeGABA = CN(CCCC(=O)[*:2])[*:1]; NMeL = CN[C@@H](CC(C)C)C(=O)O; Butyl(3R-OH) = C[C@@H](O)CC*; ξNMeF = CNC(Cc1ccccc1)C(=O)O; Butyl(3S-OH) = C[C@H](O)CC*; NMeV = CN[C@H](C(=O)O)C(C)C; NMeAbu = CC[C@H](NC)C(=O)O; NMeA = CN[C@@H](C)C(=O)O; Piperidide = C1CCN(*)CC1; dAbu = CC[C@@H](N)C(=O)O; NBuGly = CCCCNCC(=O)O; ξV = CC(C)C(N)C(=O)O; ξS = NC(CO)C(=O)O; Sar = CNCC(=O)O; tBu = CC(C)(C)*

Assay: in vitro
Details: human, Caco-2, Caco-2 (cm/sec)

SMILES | Papp [×10⁻⁶ cm/s]
CCCCN1CC(=O)N(C)[C@@H](CC(C)C)C(=O)N[C@H](C(=O)N2CCCCC2)CC(=O)N(C)[C@@H](C)C(=O)N[C@@H](COCC[C@H](C)O)C(=O)N(C)[C@@H](CC(C)C)C(=O)N(C)[C@@H](Cc2cccc(Cl)c2)C(=O)N[C@@H](CC(C)C)C(=O)N(C)[C@@H](Cc2ccccc2)C(=O)N(C)[C@@H](C(C)C)C(=O)N[C@@H]([C@@H](C)O)C1=O [AP103] ([NMeA]S(Butyl(3S-OH))[NMeL][NMePhe(3-Cl)]L[NMeF][NMeV]T[NBuGly][NMeL]D-Piperidide; lactam N-11) | 0.89
CCCCN1CC(=O)N(C)[C@@H](Cc2ccccc2)C(=O)N(C)[C@@H](C(C)C)C(=O)N[C@@H](COC(C)(C)C)C(=O)N(C)[C@@H](CC(C)C)C(=O)N[C@H](C(=O)N2CCCCC2)CC(=O)N(C)CC(=O)N(N)[C@@H](Cc2cccc(Cl)c2)C(=O)N[C@@H](COCC[C@H](C)O)C(=O)N(C)[C@@H](CC(C)C)C(=O)N[C@@H]([C@@H](C)O)C1=O [AP105] ([Sar][X18]S(Butyl(3S-OH))[NMeL]T[NBuGly][NMeF][NMeV]S(tBu)[NMeL]D-Piperidide; lactam N-11) | 0.55
CCCCN1CC(=O)N(C)[C@@H](Cc2cccc(Cl)c2)C(=O)N(C)[C@@H](CC(C)C)C(=O)N[C@@H](COCC[C@H](C)O)C(=O)N(C)[C@@H](CC(C)C)C(=O)N[C@H](C(=O)N2CCCCC2)CC(=O)N(C)CC(=O)N(C)[C@@H](Cc2ccccc2)C(=O)N[C@@H](C(C)C)C(=O)N(C)[C@@H](CC(C)C)C(=O)N[C@@H]([C@@H](C)O)C1=O [AP106] ([Sar][NMeF]V[NMeL]T[NBuGly][NMePhe(3-Cl)][NMeL]S(Butyl(3S-OH))[NMeL]D-Piperidide; lactam N-11) | 0.25
CCCCN1CC(=O)N(C)[C@@H](C(C)C)C(=O)N[C@@H](COC(C)(C)C)C(=O)N(C)[C@@H](Cc2ccccc2)C(=O)N(C)[C@@H](CC(C)C)C(=O)N[C@H](C(=O)N2CCCCC2)CC(=O)N[C@H](C(C)C)C(=O)N(C)[C@@H](Cc2ccccc2)C(=O)N[C@@H](COCC[C@@H](C)O)C(=O)N(C)[C@@H](CC(C)C)C(=O)N[C@@H]([C@@H](C)O)C1=O [AP108] ([dV][NMeF]S(Butyl(3R-OH))[NMeL]T[NBuGly][NMeV]S(tBu)[NMeF][NMeL]D-Piperidide; lactam N-11) | 0.81
CC(C)C[C@@H]1NC(=O)[C@H](Cc2ccccc2)N(C)C(=O)[C@@H](C(C)C)NC(=O)C[C@@H](C(=O)N2CCCCC2)NC(=O)[C@H](CC(C)C)N(C)C(=O)[C@H](Cc2cccc(Cl)c2)N(C)C(=O)[C@H](COCC[C@@H](C)O)NC(=O)[C@H](CC(C)C)N(C)C(=O)CN(C)C(=O)[C@H]([C@@H](C)O)NC(=O)[C@H](CC(C)C)N(C)C1=O [AP109] ([dV][NMeF]L[NMeL]T[Sar][NMeL]S(Butyl(3R-OH))[NMePhe(3-Cl)][NMeL]D-Piperidide; lactam N-11) | 0.64
CC(C)C[C@H]1C(=O)N[C@@H]([C@@H](C)O)C(=O)N(C)[C@@H](CC(C)C)C(=O)N(C)[C@@H](CC(C)C)C(=O)N[C@H](C(=O)N2CCCCC2)CC(=O)N(C)CCCC(=O)N(C)[C@@H](C(C)C)C(=O)N[C@@H](COCC[C@@H](C)O)C(=O)N(C)[C@@H](Cc2ccccc2)C(=O)N(C)[C@@H](Cc2cccc(Cl)c2)C(=O)N[C@@H](COC(C)(C)C)C(=O)N1C [AP110] ([NMeGABA][NMeV]S(Butyl(3R-OH))[NMeF][NMePhe(3-Cl)]S(tBu)[NMeL]T[NMeL][NMeL]D-Piperidide; lactam N-11) | 0.23
CC(C)C[C@H]1C(=O)NC(C(C)C)C(=O)N(C)[C@@H](Cc2ccccc2)C(=O)N(C)[C@@H](Cc2cccc(Cl)c2)C(=O)N[C@@H](COCC[C@@H](C)O)C(=O)N(C)[C@@H](CC(C)C)C(=O)N[C@@H]([C@@H](C)O)C(=O)N(C)[C@@H](CC(C)C)C(=O)N(C)[C@@H](CC(C)C)C(=O)N[C@H](C(=O)N2CCCCC2)CC(=O)N(C)CCCC(=O)N1C (stereo partly drawn) [AP111] ([NMeGABA][NMeL][ξV][NMeF][NMePhe(3-Cl)]S(Butyl(3R-OH))[NMeL]T[NMeL][NMeL]D-Piperidide; lactam N-11) | 0.13
CCCCN1CC(=O)N(C)[C@@H](CC(C)C)C(=O)N[C@H](C(=O)N2CCCCC2)CC(=O)N(C)[C@@H](C)C(=O)N[C@@H](COCC[C@@H](C)O)C(=O)N(C)[C@@H](CC(C)C)C(=O)N(C)[C@@H](Cc2cccc(Cl)c2)C(=O)N[C@@H](CC(C)C)C(=O)N(C)[C@@H](Cc2ccccc2)C(=O)N(C)[C@@H](C(C)C)C(=O)N[C@@H]([C@@H](C)O)C1=O [AP112] ([NMeA]S(Butyl(3R-OH))[NMeL][NMePhe(3-Cl)]L[NMeF][NMeV]T[NBuGly][NMeL]D-Piperidide; lactam N-11) | 0.73
CCCCN1CC(=O)N(C)[C@@H](Cc2cccc(Cl)c2)C(=O)N(C)[C@@H](CC(C)C)C(=O)N[C@@H](COCC[C@@H](C)O)C(=O)N(C)[C@@H](CC(C)C)C(=O)N[C@H](C(=O)N2CCCCC2)CC(=O)N(C)CC(=O)N(C)[C@@H](Cc2ccccc2)C(=O)N[C@@H](C(C)C)C(=O)N(C)[C@@H](CC(C)C)C(=O)N[C@@H]([C@@H](C)O)C1=O [AP114] ([Sar][NMeF]V[NMeL]T[NBuGly][NMePhe(3-Cl)][NMeL]S(Butyl(3R-OH))[NMeL]D-Piperidide; lactam N-11) | 0.28
CC(C)C[C@H]1C(=O)N[C@@H](COCC[C@@H](C)O)C(=O)N(C)[C@@H](Cc2ccccc2)C(=O)N(C)[C@@H](Cc2cccc(Cl)c2)C(=O)N[C@@H](COC(C)(C)C)C(=O)N(C)[C@@H](CC(C)C)C(=O)N[C@@H]([C@@H](C)O)C(=O)N(C)[C@@H](CC(C)C)C(=O)N(C)[C@@H](CC(C)C)C(=O)N[C@H](C(=O)N2CCCCC2)CC(=O)N(C)CCCC(=O)N1C [AP115] ([NMeGABA][NMeL]S(Butyl(3R-OH))[NMeF][NMePhe(3-Cl)]S(tBu)[NMeL]T[NMeL][NMeL]D-Piperidide; lactam N-11) | 0.27
CCCCN1CC(=O)N(C)[C@@H](CC(C)C)C(=O)N[C@@H](COC(C)(C)C)C(=O)N(C)[C@@H](Cc2ccccc2)C(=O)N(C)[C@@H](CC(C)C)C(=O)N[C@H](C(=O)N2CCCCC2)CC(=O)N[C@H](CC)C(=O)N(C)[C@@H](Cc2ccccc2)C(=O)N[C@@H](COCC(C)(C)CO)C(=O)N(C)[C@@H](CC(C)C)C(=O)N[C@@H]([C@@H](C)O)C1=O [AP117] ([dAbu][NMeF]S(Propyl(2,2-Me2,3-OH))[NMeL]T[NBuGly][NMeL]S(tBu)[NMeF][NMeL]D-Piperidide; lactam N-11) | 0.36
CC(C)C[C@@H]1NC(=O)[C@H](Cc2ccccc2)N(C)C(=O)[C@@H](C(C)C)NC(=O)C[C@@H](C(=O)N2CCCCC2)NC(=O)[C@H](CC(C)C)N(C)C(=O)[C@H](Cc2ccccc2)N(C)C(=O)[C@H](COCC(C)(C)CO)NC(=O)[C@H](CC(C)C)N(C)C(=O)CN(C)C(=O)[C@H]([C@@H](C)O)NC(=O)[C@H](CC(C)C)N(C)C1=O [AP118] ([dV][NMeF]L[NMeL]T[Sar][NMeL]S(Propyl(2,2-Me2,3-OH))[NMeF][NMeL]D-Piperidide; lactam N-11) | 1.8
CC[C@H](C)[C@@H]1NC(=O)[C@H](CC(C)C)N(C)C(=O)CCCN(C)C(=O)C[C@@H](C(=O)N2CCCCC2)NC(=O)[C@H](CC(C)C)N(C)C(=O)[C@H](CC(C)C)N(C)C(=O)[C@H]([C@@H](C)O)NC(=O)[C@H](CC(C)C)N(C)C(=O)[C@H](COCC(C)(C)CO)NC(=O)[C@H](Cc2ccccc2)N(C)C(=O)[C@H](Cc2ccccc2)N(C)C1=O [AP120] ([NMeGABA][NMeL]I[NMeF][NMeF]S(Propyl(2,2-Me2,3-OH))[NMeL]T[NMeL][NMeL]D-Piperidide; lactam N-11) | 1.1
CCCCN1CC(=O)N(C)[C@@H](CC(C)C)C(=O)N[C@H](C(=O)N2CCCCC2)CC(=O)N(C)[C@@H](C)C(=O)N[C@@H](COCC(C)(C)CO)C(=O)N(C)[C@@H](CC(C)C)C(=O)N(C)[C@@H](Cc2ccccc2)C(=O)N[C@@H](C(C)C)C(=O)N(C)[C@@H](Cc2ccccc2)C(=O)N(C)[C@@H](CC(C)C)C(=O)N[C@@H]([C@@H](C)O)C1=O [AP121] ([NMeA]S(Propyl(2,2-Me2,3-OH))[NMeL][NMeF]V[NMeF][NMeL]T[NBuGly][NMeL]D-Piperidide; lactam N-11) | 3.1
CC[C@H]1C(=O)N[C@@H](CC(C)C)C(=O)N(C)[C@@H](CC(C)C)C(=O)N(C)[C@@H](Cc2ccccc2)C(=O)NC(COCC(C)(C)CO)C(=O)N(C)[C@@H](Cc2ccccc2)C(=O)N(C)[C@@H](CC(C)C)C(=O)N[C@@H]([C@@H](C)O)C(=O)N(C)CC(=O)N(C)[C@@H](CC(C)C)C(=O)N[C@H](C(=O)N2CCCCC2)CC(=O)N1C (stereo partly drawn) [AP122] ([NMeAbu]L[NMeL][NMeF][ξS](Propyl(2,2-Me2,3-OH))[NMeF][NMeL]T[Sar][NMeL]D-Piperidide; lactam N-11) | 2.9
CCCCN1CC(=O)N(C)[C@@H](Cc2ccccc2)C(=O)N(C)[C@@H](C(C)C)C(=O)N[C@@H](COC(C)(C)C)C(=O)N(C)[C@@H](CC(C)C)C(=O)N[C@H](C(=O)N2CCCCC2)CC(=O)N(C)CC(=O)N(C)[C@@H](Cc2cccc(Cl)c2)C(=O)N[C@@H](COCC(C)(C)CO)C(=O)N(C)[C@@H](CC(C)C)C(=O)N[C@@H]([C@@H](C)O)C1=O [AP123] ([Sar][NMePhe(3-Cl)]S(Propyl(2,2-Me2,3-OH))[NMeL]T[NBuGly][NMeF][NMeV]S(tBu)[NMeL]D-Piperidide; lactam N-11) | 0.8
CCCCN1CC(=O)N(C)[C@@H](Cc2ccccc2)C(=O)N(C)[C@@H](CC(C)C)C(=O)N[C@@H](COCC(C)(C)CO)C(=O)N(C)[C@@H](CC(C)C)C(=O)N[C@H](C(=O)N2CCCCC2)CC(=O)N(C)CC(=O)N(C)[C@@H](Cc2ccccc2)C(=O)N[C@@H](C(C)C)C(=O)N(C)[C@@H](CC(C)C)C(=O)N[C@@H]([C@@H](C)O)C1=O [AP124] ([Sar][NMeF]V[NMeL]T[NBuGly][NMeF][NMeL]S(Propyl(2,2-Me2,3-OH))[NMeL]D-Piperidide; lactam N-11) | 1.6
CCCCN1CC(=O)N(C)[C@@H](CC(C)C)C(=O)N[C@@H](COCC(C)(C)CO)C(=O)N(C)[C@@H](Cc2ccccc2)C(=O)N(C)[C@@H](CC(C)C)C(=O)N[C@H](C(=O)N2CCCCC2)CC(=O)N[C@H](C(C)C)C(=O)N(C)C(Cc2ccccc2)C(=O)N[C@@H](CC(C)C)C(=O)N(C)[C@@H](CC(C)C)C(=O)N[C@@H]([C@@H](C)O)C1=O (stereo partly drawn) [AP126] ([dV][ξNMeF]L[NMeL]T[NBuGly][NMeL]S(Propyl(2,2-Me2,3-OH))[NMeF][NMeL]D-Piperidide; lactam N-11) | 0.14
